Measured values reported in ChEMBL document CHEMBL1201862, “PubChem BioAssay data set” (2004).
Activity calls are given as the source filed them.

Experiments:
[1] = Vero cell cytotoxicity, dose response, cytotoxicity control for Vif-APOBEC3G degradation inhibitor project, Vero cells (AID 1117358); assay type: functional; settings: Human immunodeficiency virus 1, Vero
Large T antigen = Large T antigen (Simian virus 40, UniProt P03070); assay type: functional, Betapolyomavirus macacae;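 also: Confirmatory-stage PubChem screen for compounds that inhibit SV40 T antigen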
Chain of Large T antigen (P03070 whole entry): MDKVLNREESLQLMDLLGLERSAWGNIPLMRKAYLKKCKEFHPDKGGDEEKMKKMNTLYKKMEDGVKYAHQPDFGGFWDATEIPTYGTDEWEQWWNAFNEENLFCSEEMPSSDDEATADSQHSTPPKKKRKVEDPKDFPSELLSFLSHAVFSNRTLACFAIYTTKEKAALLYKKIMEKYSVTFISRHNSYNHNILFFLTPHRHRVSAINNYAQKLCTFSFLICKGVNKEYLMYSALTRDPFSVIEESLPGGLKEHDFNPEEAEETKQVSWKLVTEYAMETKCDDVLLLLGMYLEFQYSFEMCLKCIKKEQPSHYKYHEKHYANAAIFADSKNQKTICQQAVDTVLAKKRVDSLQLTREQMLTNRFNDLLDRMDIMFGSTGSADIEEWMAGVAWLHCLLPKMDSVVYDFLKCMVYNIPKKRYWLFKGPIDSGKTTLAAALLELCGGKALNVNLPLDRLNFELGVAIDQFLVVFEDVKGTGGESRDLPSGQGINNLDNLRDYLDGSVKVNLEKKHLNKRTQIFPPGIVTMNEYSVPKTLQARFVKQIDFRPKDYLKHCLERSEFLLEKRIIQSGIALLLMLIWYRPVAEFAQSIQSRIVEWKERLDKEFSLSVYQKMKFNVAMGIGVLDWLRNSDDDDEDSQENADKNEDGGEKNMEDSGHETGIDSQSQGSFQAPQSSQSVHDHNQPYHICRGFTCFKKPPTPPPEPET

INS1 = experiment: beta cell apoptosis inhibitors, cytokine rescue, dose response, luminescence, retest (AID 449756); assay type: functional, cell-based; settings: Rattus norvegicus;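 also: cell death triggered by IL-1 beta plus TNF-alpha plus IFN-gamma mixture; protective hits raise ATP signal compared with cytokine alone wells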
[2] = target: T1, COUP transcription factor 2 (Homo sapiens, UniProt P24468); experiment: Luminescence-based cell-based high throughput dose response assay to identify inhibitors of COUP-TFII (NR2F2).; assay type: functional;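 also: HEK293 cells transiently cotransfected with COUP-TFII expression vector and reporter; luciferase reporter luminescence driven by COUP-TFII from the pX2-168 reporter plasmid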
T1 sequence (P24468 whole entry): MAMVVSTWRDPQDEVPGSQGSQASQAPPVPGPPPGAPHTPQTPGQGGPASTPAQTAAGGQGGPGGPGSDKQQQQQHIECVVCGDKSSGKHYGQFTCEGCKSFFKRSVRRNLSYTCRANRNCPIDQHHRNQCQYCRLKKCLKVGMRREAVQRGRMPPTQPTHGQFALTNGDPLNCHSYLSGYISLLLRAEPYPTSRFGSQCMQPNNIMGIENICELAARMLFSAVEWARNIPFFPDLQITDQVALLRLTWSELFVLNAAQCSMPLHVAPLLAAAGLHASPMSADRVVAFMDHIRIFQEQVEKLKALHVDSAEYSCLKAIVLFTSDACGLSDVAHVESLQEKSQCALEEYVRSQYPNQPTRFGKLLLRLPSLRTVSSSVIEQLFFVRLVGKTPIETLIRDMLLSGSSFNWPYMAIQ

Coagulation factor XII = target: T2, Coagulation factor XII (Homo sapiens, UniProt P00748); assay type: functional;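 also: activated factor XIIa alpha cleaving a fluorogenic AMC peptide substrate; inhibitor potency from loss of enzyme activity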
T2 sequence (P00748 whole entry): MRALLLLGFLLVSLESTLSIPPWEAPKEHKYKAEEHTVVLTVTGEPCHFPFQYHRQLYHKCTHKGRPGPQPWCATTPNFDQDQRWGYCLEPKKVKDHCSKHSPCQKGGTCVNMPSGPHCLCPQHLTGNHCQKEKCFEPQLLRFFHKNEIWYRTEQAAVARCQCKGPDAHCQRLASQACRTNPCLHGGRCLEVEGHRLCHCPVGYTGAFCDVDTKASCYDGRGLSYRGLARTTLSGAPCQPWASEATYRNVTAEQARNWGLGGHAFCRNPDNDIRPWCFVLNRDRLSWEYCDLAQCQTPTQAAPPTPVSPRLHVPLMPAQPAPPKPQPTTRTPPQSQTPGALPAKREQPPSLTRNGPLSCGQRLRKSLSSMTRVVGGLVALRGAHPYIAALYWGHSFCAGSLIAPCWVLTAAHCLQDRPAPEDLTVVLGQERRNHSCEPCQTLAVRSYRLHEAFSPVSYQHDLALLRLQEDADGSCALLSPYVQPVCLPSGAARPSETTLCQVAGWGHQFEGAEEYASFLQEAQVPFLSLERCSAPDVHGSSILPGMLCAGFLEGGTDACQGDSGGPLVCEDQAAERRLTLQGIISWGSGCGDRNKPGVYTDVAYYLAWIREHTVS

Prothrombin = Prothrombin (Homo sapiens, UniProt P00734); experiment: Thrombin 1536 HTS Dose Response Confirmation. [Related pubchem assays: 1046 (Thrombin 1536 HTS; hits were confirmed in this assay)]; assay type: functional
Galanin receptor type 3 = target: T3, Galanin receptor type 3 (Homo sapiens, UniProt O60755); experiment: Fluorescence-based cell-based primary high throughput dose response assay to identify antagonists of the Galanin Receptor 3 (GalR3).; assay type: functional
T3 sequence (O60755 whole entry): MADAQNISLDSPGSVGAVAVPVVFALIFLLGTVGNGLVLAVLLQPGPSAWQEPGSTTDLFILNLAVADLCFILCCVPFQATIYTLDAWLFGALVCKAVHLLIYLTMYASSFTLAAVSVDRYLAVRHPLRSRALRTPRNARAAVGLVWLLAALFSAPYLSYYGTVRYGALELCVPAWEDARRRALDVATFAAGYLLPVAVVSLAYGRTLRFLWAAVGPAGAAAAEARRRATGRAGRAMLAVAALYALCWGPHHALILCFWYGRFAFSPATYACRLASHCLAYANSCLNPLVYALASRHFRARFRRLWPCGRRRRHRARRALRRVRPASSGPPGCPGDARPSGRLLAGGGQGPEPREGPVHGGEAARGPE

cells = assay type: functional, cell-based; settings: HEK-CNG
fMet-Leu-Phe receptor = target: T4, fMet-Leu-Phe receptor (Homo sapiens, UniProt P21462); experiment: FPR ligands, dose response (AID 519); assay type: functional
T4 sequence (P21462 whole entry): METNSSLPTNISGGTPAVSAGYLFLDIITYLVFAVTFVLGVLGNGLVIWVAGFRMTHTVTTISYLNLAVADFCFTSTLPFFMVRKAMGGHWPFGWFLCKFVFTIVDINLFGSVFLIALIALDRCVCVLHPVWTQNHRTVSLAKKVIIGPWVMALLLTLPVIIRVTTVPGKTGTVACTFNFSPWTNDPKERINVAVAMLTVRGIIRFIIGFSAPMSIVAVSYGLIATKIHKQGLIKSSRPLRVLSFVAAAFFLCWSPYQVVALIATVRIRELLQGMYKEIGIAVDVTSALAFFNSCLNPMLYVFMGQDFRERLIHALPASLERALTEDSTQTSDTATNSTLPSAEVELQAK

Cytochrome P450 3A4 = Cytochrome P450 3A4 (Homo sapiens, UniProt P08684);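 also: CYP3A4 tested as one member of a cytochrome P450 panel screen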
Chain of Cytochrome P450 3A4 (P08684 whole entry): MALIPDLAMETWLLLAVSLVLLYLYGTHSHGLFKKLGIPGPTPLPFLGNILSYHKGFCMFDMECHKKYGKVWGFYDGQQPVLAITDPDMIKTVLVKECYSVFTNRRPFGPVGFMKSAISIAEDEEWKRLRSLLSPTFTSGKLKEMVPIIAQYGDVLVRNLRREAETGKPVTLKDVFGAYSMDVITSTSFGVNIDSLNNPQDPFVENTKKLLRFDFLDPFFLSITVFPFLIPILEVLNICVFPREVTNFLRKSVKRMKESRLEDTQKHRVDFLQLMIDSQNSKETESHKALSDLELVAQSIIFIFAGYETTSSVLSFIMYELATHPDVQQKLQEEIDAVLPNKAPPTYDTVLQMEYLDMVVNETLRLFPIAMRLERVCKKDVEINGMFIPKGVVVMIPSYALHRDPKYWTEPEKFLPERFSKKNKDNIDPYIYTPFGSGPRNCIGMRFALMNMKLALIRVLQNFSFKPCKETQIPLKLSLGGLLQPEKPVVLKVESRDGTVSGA

Cytochrome P450 2C9 = Cytochrome P450 2C9 (Homo sapiens, UniProt P11712); settings: Potency
Chain of Cytochrome P450 2C9 (P11712 whole entry): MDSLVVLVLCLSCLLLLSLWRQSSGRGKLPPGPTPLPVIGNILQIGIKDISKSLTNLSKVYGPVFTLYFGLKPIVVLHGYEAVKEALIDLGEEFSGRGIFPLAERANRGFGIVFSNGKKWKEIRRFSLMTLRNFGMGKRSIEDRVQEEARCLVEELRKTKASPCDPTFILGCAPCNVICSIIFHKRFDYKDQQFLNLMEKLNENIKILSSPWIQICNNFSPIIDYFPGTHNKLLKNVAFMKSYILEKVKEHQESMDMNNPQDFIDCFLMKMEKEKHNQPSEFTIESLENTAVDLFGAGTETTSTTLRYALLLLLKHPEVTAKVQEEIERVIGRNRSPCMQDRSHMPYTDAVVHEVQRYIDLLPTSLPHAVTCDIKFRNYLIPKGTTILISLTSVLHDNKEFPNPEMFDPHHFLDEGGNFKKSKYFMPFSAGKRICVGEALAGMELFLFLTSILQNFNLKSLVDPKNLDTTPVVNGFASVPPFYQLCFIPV

[3] = target: Potassium voltage-gated channel subfamily KQT member 2 (Rattus norvegicus, UniProt O88943, W236L); experiment: KCNQ2 channel potentiators, dose response, mechanism study for KCNQ2 potentiator project, cell-based, automated electrophysiology (AID 2603); assay type: functional
Chain of Potassium voltage-gated channel subfamily KQT member 2 (O88943 whole entry W236L): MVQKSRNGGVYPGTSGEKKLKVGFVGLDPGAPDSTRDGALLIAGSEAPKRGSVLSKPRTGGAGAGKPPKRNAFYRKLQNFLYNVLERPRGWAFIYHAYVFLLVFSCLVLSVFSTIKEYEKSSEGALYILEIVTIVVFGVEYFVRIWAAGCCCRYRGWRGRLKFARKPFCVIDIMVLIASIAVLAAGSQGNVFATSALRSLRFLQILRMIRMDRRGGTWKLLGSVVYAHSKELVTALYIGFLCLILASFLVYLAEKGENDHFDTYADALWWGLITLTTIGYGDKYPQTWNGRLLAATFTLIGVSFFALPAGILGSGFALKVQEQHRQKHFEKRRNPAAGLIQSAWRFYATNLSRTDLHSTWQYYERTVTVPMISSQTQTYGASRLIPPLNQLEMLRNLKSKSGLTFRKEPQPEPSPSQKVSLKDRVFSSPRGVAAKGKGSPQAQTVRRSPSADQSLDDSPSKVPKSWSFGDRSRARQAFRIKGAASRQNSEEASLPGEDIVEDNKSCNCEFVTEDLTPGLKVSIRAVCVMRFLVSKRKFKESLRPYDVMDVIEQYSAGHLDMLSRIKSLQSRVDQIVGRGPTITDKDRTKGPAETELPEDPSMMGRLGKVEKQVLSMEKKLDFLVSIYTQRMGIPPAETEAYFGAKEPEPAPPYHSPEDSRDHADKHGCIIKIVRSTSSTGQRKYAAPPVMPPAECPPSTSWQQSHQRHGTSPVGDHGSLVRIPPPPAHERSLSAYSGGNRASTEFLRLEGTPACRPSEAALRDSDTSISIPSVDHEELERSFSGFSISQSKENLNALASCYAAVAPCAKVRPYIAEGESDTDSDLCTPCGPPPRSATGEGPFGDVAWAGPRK

[4] = target: T5, Replicative DNA helicase DnaB (Mycobacterium tuberculosis, UniProt P9WMR3); experiment: DnaB intein splicing inhibitors, dose response, biochemical, cell-free fluorescence (AID 449749); assay type: functional
T5 sequence (P9WMR3 whole entry): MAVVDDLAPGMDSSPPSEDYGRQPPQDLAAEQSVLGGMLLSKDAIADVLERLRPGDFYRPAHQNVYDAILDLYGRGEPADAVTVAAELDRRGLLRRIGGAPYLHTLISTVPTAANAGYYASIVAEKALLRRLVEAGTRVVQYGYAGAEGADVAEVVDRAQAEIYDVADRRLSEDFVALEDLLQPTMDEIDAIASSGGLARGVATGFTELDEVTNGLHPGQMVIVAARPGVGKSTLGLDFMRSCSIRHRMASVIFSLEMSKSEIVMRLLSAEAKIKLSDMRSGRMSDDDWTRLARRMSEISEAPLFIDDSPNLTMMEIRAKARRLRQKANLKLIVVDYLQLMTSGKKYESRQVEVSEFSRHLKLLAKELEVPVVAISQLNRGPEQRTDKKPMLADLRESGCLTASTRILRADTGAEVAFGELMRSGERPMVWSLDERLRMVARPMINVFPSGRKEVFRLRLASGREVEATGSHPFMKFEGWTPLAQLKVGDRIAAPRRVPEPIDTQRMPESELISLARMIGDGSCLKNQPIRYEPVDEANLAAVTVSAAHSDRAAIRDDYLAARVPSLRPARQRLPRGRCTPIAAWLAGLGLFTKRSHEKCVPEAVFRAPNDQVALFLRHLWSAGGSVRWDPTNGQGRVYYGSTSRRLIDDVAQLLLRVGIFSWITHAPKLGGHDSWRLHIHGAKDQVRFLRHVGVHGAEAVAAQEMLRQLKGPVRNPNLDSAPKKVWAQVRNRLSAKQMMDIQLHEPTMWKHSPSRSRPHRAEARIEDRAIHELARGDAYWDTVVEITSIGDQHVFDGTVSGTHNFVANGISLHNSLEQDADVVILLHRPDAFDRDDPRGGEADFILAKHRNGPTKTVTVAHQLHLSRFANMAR

Protein RecA = target: T6, Protein RecA (Mycobacterium tuberculosis, UniProt P9WHJ3); experiment: Fluorescence Cell-Free Homogeneous Dose Retest to Identify Inhibitors of RecA-Intein Splicing Activity. [Related pubchem assays (depositor defined):AID2097, AID2223, AID489010, AID492950]; assay type: functional
T6 sequence (P9WHJ3 whole entry): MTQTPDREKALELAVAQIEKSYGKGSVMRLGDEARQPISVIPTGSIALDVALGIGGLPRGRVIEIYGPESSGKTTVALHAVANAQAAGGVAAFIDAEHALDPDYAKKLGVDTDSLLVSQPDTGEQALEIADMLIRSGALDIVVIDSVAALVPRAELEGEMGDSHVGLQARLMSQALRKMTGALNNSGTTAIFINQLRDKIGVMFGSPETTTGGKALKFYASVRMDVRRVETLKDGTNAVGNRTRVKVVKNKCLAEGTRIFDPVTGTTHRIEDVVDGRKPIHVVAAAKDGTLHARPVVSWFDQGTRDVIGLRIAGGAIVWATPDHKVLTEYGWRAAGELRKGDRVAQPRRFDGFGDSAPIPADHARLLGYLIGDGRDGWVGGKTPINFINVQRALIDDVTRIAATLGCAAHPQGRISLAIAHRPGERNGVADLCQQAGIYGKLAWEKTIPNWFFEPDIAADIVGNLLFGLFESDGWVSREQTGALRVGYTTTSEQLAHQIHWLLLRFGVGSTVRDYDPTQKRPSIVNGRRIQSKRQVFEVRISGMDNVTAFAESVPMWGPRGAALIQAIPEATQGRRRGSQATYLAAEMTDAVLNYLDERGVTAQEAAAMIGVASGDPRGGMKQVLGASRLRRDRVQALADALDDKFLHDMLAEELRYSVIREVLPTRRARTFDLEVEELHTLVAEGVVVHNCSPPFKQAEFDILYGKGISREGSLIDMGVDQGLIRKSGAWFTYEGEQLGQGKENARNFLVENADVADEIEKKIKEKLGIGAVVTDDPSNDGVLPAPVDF

[5] = inhibitors of PGC1a acetylation in cells, dose response, cell-based, cherry-picked samples (AID 720514); assay type: functional;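 also: potency may reflect raised or lowered acetylation signal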
[6] = Luminescence Cell-Based Dose Retest to Confirm Inhibitors of Cancer Stem Cells. [Related pubchem assays (depositor defined):AID2717, AID2721]; assay type: functional; settings: Homo sapiens
[7] = P. falciparum ATP4 D1247Y mutant growth inhibitors, dose response, NITD609-resistant line, SYBR Green, dry powder (AID 1159571); assay type: functional, cell-based;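 also: parasites synchronized at ring stage by sorbitol before testing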
[8] = HepG2 cell cytotoxicity, dose response, cytotoxicity control, plate reader, dry powder samples (AID 1159569); assay type: functional, cell-based;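 also: inhibitor potency with signal falling toward the positive control level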
[9] = P. falciparum Dd2 growth inhibitors, dose response, SYBR Green, cherry-picked samples (AID 1159567); assay type: functional, cell-based
[10] = P. falciparum Dd2 growth inhibitors, dose response, SYBR Green, dry powder samples (AID 1159566); assay type: functional, cell-based;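 also: potency for growth inhibition with lower SYBR green DNA signal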
Paired box protein Pax-8 = Paired box protein Pax-8 (Homo sapiens, UniProt Q06710); experiment: inhibitors of PAX8-driven TPO luciferase reporter, dose response, RMG-I cells, cherry-pick (AID 687027); assay type: functional, cell-based;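 also: luciferase reporter driven by Pax8 target thyroperoxidase promoter measured by SteadyGlo luminescence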
Chain of Paired box protein Pax-8 (Q06710 whole entry): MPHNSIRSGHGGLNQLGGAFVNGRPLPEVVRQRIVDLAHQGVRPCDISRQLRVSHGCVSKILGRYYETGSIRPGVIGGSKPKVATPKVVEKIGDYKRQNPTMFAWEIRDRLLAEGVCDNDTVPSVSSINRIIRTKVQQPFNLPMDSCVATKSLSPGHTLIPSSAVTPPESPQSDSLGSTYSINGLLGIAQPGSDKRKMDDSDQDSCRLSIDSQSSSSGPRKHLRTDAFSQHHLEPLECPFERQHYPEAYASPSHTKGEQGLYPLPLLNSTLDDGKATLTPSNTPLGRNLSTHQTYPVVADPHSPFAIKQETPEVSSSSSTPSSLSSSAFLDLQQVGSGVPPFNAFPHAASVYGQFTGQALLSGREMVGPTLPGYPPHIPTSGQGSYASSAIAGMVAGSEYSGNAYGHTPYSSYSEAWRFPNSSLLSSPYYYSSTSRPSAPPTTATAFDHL

[11] = P. falciparum 3D7-ScDHODH growth inhibitors, dose response, SYBR Green, dry powder samples (AID 1159570); assay type: functional, cell-based;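 also: parasite growth measured after 72 hours of compound exposure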
[12] = NIH:OVCAR-3 ovarian cancer cell cytotoxicity, dose response, PAX8 inhibitor project, plate reader, dry powder samples (AID 743044); assay type: functional, cell-based
[13] = cytotoxicity in OVCAR8 ovarian cancer cells, dose response, PAX8 project, cell-based, plate reader, dry powder samples (AID 743197); assay type: functional; settings: OVCAR-8

CCOc1cc(N2CCOCC2)c(OCC)cc1NS(=O)(=O)c1ccc(Cl)s1
CC50 [1]: > 40 µM (active)
IC50 (Large T antigen): 61.4 µM (active)

O=C(NCCc1cn2ccccc2n1)c1cc(COc2ccc3ncccc3c2)on1
AC50 (INS1): 6 µM (active)
IC50 [2]: 8.53 µM (active)

CCc1nnc(NC(=O)CCN(c2ccc(C)cc2)S(=O)(=O)c2ccccc2)s1
IC50 (Coagulation factor XII): > 50 µM (inactive)
IC50 (Prothrombin): > 50 µM (not active)

CC(=O)c1ccc(N2CCN(C(S)=Nc3ccc(Oc4ccccc4)cc3)CC2)cc1
IC50 (Galanin receptor type 3): 1.23 µM (active)
EC50 (cells): > 29.9 µM (inactive)
IC50 [2]: 8.27 µM (active)

CCC(NC(=O)Nc1cc(OC)c(OC)c(OC)c1)(C(F)(F)F)C(F)(F)F
Ki (fMet-Leu-Phe receptor): > 66.7 µM (inactive)
AC50 (Cytochrome P450 3A4): 15.8 µM (inconclusive)

COc1ccc(C#CC2C=CC(Oc3cc(C)cc(C)c3)C(CO)O2)cc1 (stereo unspecified)
AC50 (Cytochrome P450 2C9): 2 µM (inconclusive)

CSCC[C@@H](Nc1nc(-c2ccccc2)nc2c1oc1ccccc12)C(=O)O
CC50 [1]: > 40 µM (active)

CC(C)c1nnc(NC(=O)c2nc(S(=O)(=O)Cc3ccccc3F)ncc2Cl)s1
EC50 [3]: 8.4 µM (active)
AC50 [4]: 4.25 µM (active)
EC50 (Protein RecA): 3.16 µM (active)

O=C(Nc1ccc(N2CCN(Cc3ccccc3F)CC2)cc1)c1ccc([N+](=O)[O-])o1
AC50 [5]: 1.58 µM (active)
AC50 [6]: 1.29 µM (active)

CCC(=O)N=C(Nc1cccc(OC)c1)Nc1nc(C)cc(C)n1
IC50 (Prothrombin): 0.268 µM (active)

ClC1(Cl)CC1CSc1nc[nH]n1 (stereo unspecified)
IC50 (Prothrombin): > 50 µM (not active)

CCCCC#CC1C=CC(Oc2ccc(C(=O)OC)cc2)C(COC(=O)OCC)O1 (stereo unspecified)
AC50 (Cytochrome P450 2C9): 3.16 µM (inconclusive)

C=CS(=O)(=O)N(Cc1ccccc1Br)[C@H](CO)Cc1ccccc1
AC50 [5]: 1.05 µM (active)

C[C@H](CO)N1C[C@H](C)[C@@H](CN(C)Cc2ccc(Oc3ccccc3)cc2)OCc2ccccc2-c2c(n(C)c3ccccc23)C1=O
AC50 [7]: 2.82 µM (active)
AC50 [8]: 20.3 µM (active)
AC50 [9]: 2.58 µM (active)
AC50 [10]: 2.58 µM (active)
AC50 (Paired box protein Pax-8): 17.1 µM (active)
AC50 [11]: 3.28 µM (active)

C[C@@H]1CCCCO[C@@H](CN(C)C(=O)Nc2cccc3ccccc23)[C@H](C)CN([C@H](C)CO)C(=O)c2cc(NS(=O)(=O)c3ccc(Cl)cc3)ccc2O1
AC50 [12]: 36.6 µM (active)
AC50 (Paired box protein Pax-8): 5.29 µM (active)
AC50 [13]: 32.4 µM (active)

COc1ccc(-c2ccccc2[C@H]2[C@@H](C#N)N(C(=O)NC3CCCC3)[C@H]2CO)cc1
AC50 [7]: 1.72 µM (active)
AC50 [8]: 65.8 µM (active)
AC50 [9]: 1.9 µM (active)
AC50 [10]: 1.27 µM (active)
AC50 [11]: 1.21 µM (active)
